In PMC8318231, “Rate-of-Kill (RoK) assays to triage large compound sets for Chagas disease drug discovery: Application to GSK Chagas Box” (PLoS Neglected Tropical Diseases, 2021):

Key:
[1] = tested on: T. cruzi Tulahuen trypomastigotes; test: T. cruzi trypomastigote assay (Cell Titer-Glo viability, ATP luminescence); type: cell-based, Trypanosoma cruzi; details: for Trypomastigotes pIC50 48 hours: 48 hours incubation; for Trypomastigotes pIC50 48 hours / Trypomastigotes pIC50 72 hours: pIC50 = -log10 IC50 in molar units; for Trypomastigotes pIC50 72 hours: 72 hours incubation; for 48 pIC50 / 72 pIC50: trypomastigote assay; for 48 pIC50: 48 h; for 72 pIC50: 72 h
Method: T. cruzi Tulahuen trypomastigotes obtained from the supernatants of LLC-MK2 infected cultures in a 225 cm^2 T-Flasks harvested between days 5 and 8 of infection. Trypomastigotes (5 × 10^4 per well) in 50 μl of DMEM/ 2% FBS were dispensed into white 384 plates (Greiner) pre-stamped with 250 nl compound a single-shot final concentration of 5 μM, or in dose response. […] Cell Titer-Glo cell viability solution (Promega) was added to each well (50 μL) incubated at room temperature for 10 min and luminescence read by Envision plate reader (Perkin Elmer). This assay quantifies the amount of ATP present which is directly proportional to the number of metabolically active cells. All data were normalised (100% effect control for no cells and 0% effect control for DMSO). This assay was adapted from MacLean et al., 2018 [22].

[2] = tested on: TcCYP51; details: formerly reported; cited from earlier work

Structure (SMILES)	Trypomastigotes pIC50 48 hours [1]	Trypomastigotes pIC50 72 hours [1]	48 pIC50 ([1]; figure 1A)	72 pIC50 ([1]; figure 1A)	72 pIC50 ([1]; figure 1B)	CYP51 pIC50 [2]
Cn1c(CN2CCN(c3ncc(C(F)(F)F)cc3Cl)CC2)nc2ccncc21 [TCMDC-143276]	< 4.3	< 4.3	< 4.3	< 4.3	< 4.3	7.1
O=C(Nc1nc(-c2ccc(S(=O)(=O)N3CCOCC3)cc2)cs1)c1ccc([N+](=O)[O-])cc1 [TCMDC-143282]	5.8	5.8	5.8	5.8	5.8	< 4
Cc1ccc2sc(NC(=O)Cn3cnc([N+](=O)[O-])n3)nc2c1 [TCMDC-143284]	5.6	5.3	–	–	–	< 4
CCN(CC)S(=O)(=O)c1ccc(Cn2nc(C(=O)Nc3ccncn3)c3ccccc32)cc1 [TCMDC-143288]	< 4.3	< 4.3	< 4.3	< 4.3	< 4.3	6.8
CC(C(=O)Nc1ccccc1F)N(C)CC(=O)Nc1cccc2ccccc12 (centres unmarked) [TCMDC-143293]	–	< 4.3	–	–	–	4.8
Cc1ccc2ccc(C(Nc3ccccn3)c3cccnc3)c(O)c2n1 (centres unmarked) [TCMDC-143308]	5.7	5.4	–	–	–	7.3
COc1ccccc1C=CCN1C[C@H]2CCC[C@@H](C1)C2(O)c1cccnc1 (some centres unmarked) [TCMDC-143309]	< 4.3	4.5	–	–	–	6.9
O=C(NCC(c1cccnc1)N1CCc2ccccc2C1)C(=O)Nc1cccc(Cl)c1 (centres unmarked) [TCMDC-143329]	4.8	4.8	4.8	4.8	4.8	7.2
CCC1Oc2cc(S(=O)(=O)N(C)CC(=O)N3CCc4ccccc4C3)c(C)cc2NC1=O (centres unmarked) [TCMDC-143332]	< 4.3	< 4.3	< 4.3	< 4.3	< 4.3	6.1
Cc1nc(N2CCC(C(=O)N3CCC(O)(c4cccnc4)CC3)CC2)nc2ccc(C(C)C)cc12 [TCMDC-143333]	4.5	4.4	–	–	–	6.9
CN(Cc1ccc(F)cc1)c1ccc(OCC(=O)N2CCCCC2c2cccnc2)nn1 (centres unmarked) [TCMDC-143334]	< 4.3	< 4.3	< 4.3	< 4.3	< 4.3	7.3
Cc1ccc(NC(=O)C(C)n2nc([N+](=O)[O-])c(Br)c2C)cc1Cl (centres unmarked) [TCMDC-143338]	5.5	5.3	–	–	–	< 4
CN(Cc1nc2ccccc2s1)C(=O)C=Cc1cc2ccccc2o1 [TCMDC-143354]	4.4	< 4.3	–	–	–	6.8
Cc1cccc(NS(=O)(=O)c2cnc3sc(C)cn3c2=O)c1 [TCMDC-143372]	< 4.3	< 4.3	< 4.3	< 4.3	< 4.3	< 4
Cc1ccc(CNC2CCN(C[C@@H]3Cn4c(=O)ccc5ccc(=O)n3c54)CC2)cc1F [TCMDC-143403]	< 4.3	< 4.3	< 4.3	< 4.3	< 4.3	< 4
CN(C)c1ccc(-c2cc3nccnc3c(OC[C@H]3CCCNC3)n2)cn1.Cl [TCMDC-143408]	4.5	5.2	–	–	–	< 4
COc1ccc(-c2ccc3nnc(-c4ccc(O)c(OC)c4)n3c2)cn1 [TCMDC-143413]	< 4.3	< 4.3	< 4.3	< 4.3	< 4.3	< 4
CN(C)c1ncc(-c2cncn2CCOc2ccc(Cl)cc2)cn1 [TCMDC-143415]	4.5	4.5	4.5	4.5	4.5	7.3
CCC(c1ccc(F)cc1)n1cncc1-c1cnn(C)c1 (centres unmarked) [TCMDC-143416]	< 4.3	< 4.3	< 4.3	< 4.3	< 4.3	7.1
O=C(Nc1ncc([N+](=O)[O-])s1)C1CC1 [TCMDC-143417]	6.1	6	–	–	–	< 4
Fc1ccccc1N1C[C@H]2CCN(c3cccnc3)C[C@H]2C1.O=C(O)C(F)(F)F [TCMDC-143422]	4.6	< 4.3	–	–	–	7.2
CC(Cn1ccnc1)NC(=O)C=Cc1ccc(Cl)cc1 (centres unmarked) [TCMDC-143423]	< 4.3	< 4.3	< 4.3	< 4.3	< 4.3	6.8
CN1CCN(c2nc(-c3ccc(Cl)cc3)c3c(N)n(C)nc3n2)CC1 [TCMDC-143426]	< 4.3	< 4.3	< 4.3	< 4.3	< 4.3	< 4
COc1ccc(C)cc1-c1csc(NC(=O)C(C)n2ccnc2)n1 (centres unmarked) [TCMDC-143430]	< 4.3	< 4.3	< 4.3	< 4.3	< 4.3	7.4
COc1ccc2nc(N(Cc3cccnc3)C(=O)C3CCC3)sc2c1 [TCMDC-143437]	< 4.3	< 4.3	< 4.3	< 4.3	< 4.3	7.2
c1cncc(CN(Cc2ccco2)Cc2cn[nH]c2-c2cccs2)c1 [TCMDC-143440]	4.4	< 4.3	–	–	–	7.1
O=C(NCc1nnc2n1CCCCC2)c1ccc(-c2ccc(F)cc2)o1 [TCMDC-143446]	< 4.3	4.7	–	–	–	4.1
c1cc(-c2ncc(-c3ccn[nH]3)s2)ccn1 [TCMDC-143461]	< 4.3	< 4.3	< 4.3	< 4.3	< 4.3	7.4
CNc1cncc(C2CCCN2C(=O)Cc2coc3cc(C)ccc23)n1 (centres unmarked) [TCMDC-143464]	< 4.3	< 4.3	< 4.3	< 4.3	< 4.3	7.6
